Reference: patent publication EP4768477A1 (Yichang Humanwell Pharmaceutical Co., Ltd., priority 2024, dated 2025)
Where no end group is shown, it is not given here.

Columns and labels:
hKOR = target: T1, hKOR (Homo sapiens, UniProt P41145); test: Agonistic function, cAMP method, 293-KOR cells; type: cell-based; details: forskolin
T1 construct: expressed in transfected cells; host or cells: Human embryonic kidney cells 293 (293-KOR)
Procedure: • a. […] Prepare 8 × drug-containing solution with buffe. • c. […] Incubate for 1 h at room temperature. • j.

[1] = system: gastrointestinal peristalsis; test: Effect on gastrointestinal peristalsis (charcoal propulsion); details: 3 mg/kg, single subcutaneous injection, SD rats
[2] = system: formalin-induced inflammatory pain model; parameters: species or system SD rats; details: rat, in vivo

T1 sequence (P41145 whole entry): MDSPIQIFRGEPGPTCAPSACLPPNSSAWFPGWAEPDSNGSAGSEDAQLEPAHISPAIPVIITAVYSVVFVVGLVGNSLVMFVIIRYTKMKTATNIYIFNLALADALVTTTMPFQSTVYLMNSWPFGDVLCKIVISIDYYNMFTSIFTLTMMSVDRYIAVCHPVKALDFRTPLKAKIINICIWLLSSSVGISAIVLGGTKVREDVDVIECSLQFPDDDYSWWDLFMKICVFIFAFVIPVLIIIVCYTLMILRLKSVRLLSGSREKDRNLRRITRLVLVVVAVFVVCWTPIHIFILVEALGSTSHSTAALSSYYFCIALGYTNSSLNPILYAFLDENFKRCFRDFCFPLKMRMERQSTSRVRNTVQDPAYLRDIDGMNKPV

Molecule	EC50 (hKOR) [pM]	Emax (hKOR) [%]	effect on the gastrointestinal peristalsis in rats (charcoal propulsion rate) [1]	MPE% [2] [%]
YGGFLRRIRP [Dynorphin A1-10]	650	102	–	–
CN1CC[C@]23c4c5ccc(O)c4O[C@H]2[C@@H](O)C=C[C@H]3[C@H]1C5 [Morphine]	–	–	significant inhibitory effect	75.9±28.9
